{"source": "patent US20240247024A1", "about": "“INHIBITORS OF NICOTINAMIDE N-METHYL TRANSFERASE (NNMT)” (UNIVERSITEIT LEIDEN, priority 2021, published 2024)", "key": {"HSC-2 oral cancer cells": {"system": "HSC-2 oral cancer cells", "details": "cited from earlier work"}, "NNMT": {"target": "T1, NNMT (Homo sapiens, UniProt P40261)", "T1 sequence (P40261 1-264)": "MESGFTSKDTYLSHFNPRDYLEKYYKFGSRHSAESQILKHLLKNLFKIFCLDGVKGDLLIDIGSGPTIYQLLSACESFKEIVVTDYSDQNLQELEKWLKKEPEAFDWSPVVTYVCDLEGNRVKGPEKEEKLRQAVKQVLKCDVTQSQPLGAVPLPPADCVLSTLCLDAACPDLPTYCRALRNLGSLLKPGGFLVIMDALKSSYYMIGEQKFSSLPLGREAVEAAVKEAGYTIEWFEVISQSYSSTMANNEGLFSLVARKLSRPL", "design": "The enzymatic activity assays were performed using NNMT at a final concentration of 100 nM diluted in assay buffer", "details": "background section, cited from earlier work; for IC50: known NNMT inhibitors, read-out: IC50 against NNMT"}, "[1]": {"details": "cited from earlier work"}, "aged mouse model": {"system": "aged mouse model", "details": "cited from earlier work"}, "[2]": {"system": "diet-induced obese (DIO) mice", "details": "cited from earlier work"}, "[3]": {"details": "cited from earlier work", "remark": "listed apart in the source"}, "[4]": {"details": "cited from earlier work", "remark": "listed apart in the source"}, "[5]": {"details": "rapidly degraded by SAHH to adenosine and homocysteine; cited from earlier work"}, "U2OS cells": {"system": "U2OS cells", "details": "cited from earlier work"}, "[6]": {"system": "HSC-2 human oral cancer cell line", "assay": "MTT cell proliferation assay, HSC-2", "format": "cell-based", "details": "for % of DMSO control at 100 μM, HSC-2, 24 h: 24 h incubation; for % of DMSO control at 100 μM, HSC-2, 48 h: 48 h incubation; for % of DMSO control at 100 μM, HSC-2, 72 h: 72 h incubation", "method": "(§1) UROTsa immortalized human urothelium cell line, HSC-2 human oral cancer cell line, T24 human bladder cancer cell line and A549 human lung cancer line were purchased from the American Type Culture Collection (ATCC, Rockville, MD, USA), and cultured in DMEM/F12 medium, supplemented with 10% fetal bovine serum and 50 μg/ml gentamicin, at 37° C. in a humidified 5% CO2 incubator. For each compound tested, powder was dissolved in DMSO at 100 mM concentration. This stock solution was then diluted in culture medium to final concentration values ranging between 1 μM and 100 μM. For each sample, DMSO was kept constant at 0.1% final concentration. The day before starting treatment, cells were seeded in 96-well plates, at a density of 2000 cells/well. Cells were allowed to attach overnight and then incubated with compounds at different final concentrations, or with DMSO only, for 24, 48 and 72 hours. All experiments were performed in triplicate.\n(§2) Cell proliferation was determined using a colorimetric assay with 3-(4,5-dimethylthiazol-2-yl)-2,5-diphenyl tetrazolium bromide (MTT). The MTT assay measures the conversion of MTT to insoluble formazan by dehydrogenase enzymes of the intact mitochondria of living cells. Cell proliferation was evaluated by measuring the conversion of the tetrazolium salt MTT to formazan crystals upon treatment with compounds or DMSO only for 24, 48 and 72 hours. Briefly, cells were incubated for 2 hours at 37° C. with 100 μl fresh culture medium containing 5 μl of MTT reagent (5 mg/ml in PBS). The medium was removed and 200 μl isopropanol were added. The amount of formazan crystals formed correlated directly with the number of viable cells. The reaction product was quantified by measuring the absorbance at 540 nm using an ELISA plate reader. Experiments were repeated three times. Results were expressed as percentage of the control (control equals 100% and corresponds to the absorbance value of each sample at time zero) and presented as mean values±standard deviation of three independent experiments performed in triplicate.\n(§3) Data were analysed using GraphPad Prism software for Windows (GraphPad Software, San Diego, CA). Significant differences between groups were determined using the one-way analysis of variance (ANOVA). A p value <0.05 was considered as statistically significant."}, "[7]": {"system": "T24 human bladder cancer cell line", "assay": "MTT cell proliferation assay, T24", "format": "cell-based", "details": "for % of DMSO control at 100 μM, T24, 24 h: 24 h incubation; for % of DMSO control at 100 μM, T24, 48 h: 48 h incubation; for % of DMSO control at 100 μM, T24, 72 h: 72 h incubation", "method": "as §1, §2, §3"}, "[8]": {"system": "A549 human lung cancer line", "assay": "MTT cell proliferation assay, A549", "format": "cell-based", "details": "for % of DMSO control at 100 μM, A549, 24 h: 24 h incubation; for % of DMSO control at 100 μM, A549, 48 h: 48 h incubation; for % of DMSO control at 100 μM, A549, 72 h: 72 h incubation", "method": "as §1, §2, §3"}, "high-fat DIO mice": {"system": "high-fat DIO mice", "details": "cited from earlier work"}}}
{"smiles": "Nc1ncnc2c1ncn2[C@@H]1O[C@H](CN(CC[C@H](N)C(=O)O)Cc2ccc3ccccc3c2)[C@@H](O)[C@H]1O", "note": "[GYZ191]", "values": [{"measurement": "effect on cell viability", "setting": "HSC-2 oral cancer cells", "result": "significant inhibitory effect"}]}
{"smiles": "NC(=O)c1cccc(CCN(CC[C@H](N)C(=O)O)C[C@H]2O[C@@H](n3cnc4c(N)ncnc43)[C@H](O)[C@@H]2O)c1", "note": "[MS2756]", "values": [{"measurement": "IC50", "setting": "NNMT", "result": 160000, "unit": "nM"}]}
{"smiles": "NC(=O)c1cccc(C#CCN(CC[C@H](N)C(=O)O)C[C@H]2O[C@@H](n3cnc4c(N)ncnc43)[C@H](O)[C@@H]2O)c1", "note": "[LL320]", "values": [{"measurement": "cell permeability", "setting": "[1]", "result": "poor cell permeability"}]}
{"smiles": "C[n+]1cccc2c(N)cccc21", "note": "[Compound 5-amino-1-MQ, 5-amino-1-MQ]", "values": [{"measurement": "muscle regeneration", "setting": "aged mouse model", "result": "accelerate muscle regeneration"}, {"measurement": "adipocyte size", "setting": "[2]", "result": "decreased"}, {"measurement": "body weight and white adipose mass", "setting": "[2]", "result": "significantly reduced"}, {"measurement": "plasma total cholesterol levels", "setting": "[2]", "result": "lowered"}, {"measurement": "IC50", "setting": "NNMT", "result": 1200, "unit": "nM"}]}
{"smiles": "NC(=O)c1cccc(CCN(CCC[C@H](N)C(=O)O)C[C@H]2O[C@@H](n3cnc4c(N)ncnc43)[C@H](O)[C@@H]2O)c1", "note": "[MS2734]", "values": [{"measurement": "IC50", "setting": "NNMT", "result": 14000, "unit": "nM"}]}
{"smiles": "Nc1ncnc2c1ncn2[C@@H]1O[C@H](C[C@@H](N)CC[C@H](N)C(=O)O)[C@@H](O)[C@H]1O", "note": "[Sinefungin, sinefungin]", "values": [{"measurement": "cell membrane permeability", "setting": "[3]", "result": "low cell membrane permeability"}, {"measurement": "toxicity in animal models", "setting": "[4]", "result": "severe toxicity"}]}
{"smiles": "C[n+]1cccc2ccccc21", "note": "[Compound 1-MQ]", "values": [{"measurement": "IC50", "setting": "NNMT", "result": 12100, "unit": "nM"}]}
{"smiles": "Nc1ncnc2c1ncn2[C@@H]1O[C@H](CSCC[C@H](N)C(=O)O)[C@@H](O)[C@H]1O", "note": "[SAH, S-adenosyl-1-homocysteine]", "values": [{"measurement": "activity in cellular assays", "setting": "[5]", "result": "loses its activity"}]}
{"smiles": "NC(=O)c1cccc(C#C[C@@H](CC[C@H](N)C(=O)O)C[C@H]2O[C@@H](n3cnc4c(N)ncnc43)[C@H](O)[C@@H]2O)c1", "note": "[NS1]", "values": [{"measurement": "MNA levels in cells", "setting": "U2OS cells", "result": "only moderately decreased"}, {"measurement": "Ki", "setting": "NNMT; known bisubstrate inhibitors, read-out: Ki against NNMT", "result": 0.5, "unit": "nM"}]}
{"smiles": "CCCOC(=O)[C@@H](N)CCN(C/C=C/c1ccc(C#N)cc1)C[C@H]1O[C@@H](n2cnc3c(N)ncnc32)[C@H](O)[C@@H]1O", "note": "[GYZ-579]", "values": [{"measurement": "% of DMSO control at 100 μM, HSC-2, 24 h", "setting": "[6]", "result": "100 % of DMSO control"}, {"measurement": "% of DMSO control at 100 μM, HSC-2, 48 h", "setting": "[6]", "result": "57 % of DMSO control"}, {"measurement": "% of DMSO control at 100 μM, HSC-2, 72 h", "setting": "[6]", "result": "63 % of DMSO control"}, {"measurement": "% of DMSO control at 100 μM, T24, 24 h", "setting": "[7]", "result": "82 % of DMSO control"}, {"measurement": "% of DMSO control at 100 μM, T24, 48 h", "setting": "[7]", "result": "71 % of DMSO control"}, {"measurement": "% of DMSO control at 100 μM, T24, 72 h", "setting": "[7]", "result": "100 % of DMSO control"}, {"measurement": "% of DMSO control at 100 μM, A549, 24 h", "setting": "[8]", "result": "100 % of DMSO control"}, {"measurement": "% of DMSO control at 100 μM, A549, 48 h", "setting": "[8]", "result": "100 % of DMSO control"}, {"measurement": "% of DMSO control at 100 μM, A549, 72 h", "setting": "[8]", "result": "100 % of DMSO control"}]}
{"smiles": "COC(=O)[C@H](CCN(C/C=C/c1ccc(C#N)cc1)C[C@H]1O[C@@H](n2cnc3c(N)ncnc32)[C@H](O)[C@@H]1O)NC(=O)CC(C)(C)c1c(C)cc(C)cc1OC(C)=O", "note": "[GYZ-573]", "values": [{"measurement": "% of DMSO control at 100 μM, HSC-2, 24 h", "setting": "[6]", "result": "83 % of DMSO control"}, {"measurement": "% of DMSO control at 100 μM, HSC-2, 48 h", "setting": "[6]", "result": "69 % of DMSO control"}, {"measurement": "% of DMSO control at 100 μM, HSC-2, 72 h", "setting": "[6]", "result": "39 % of DMSO control"}, {"measurement": "% of DMSO control at 100 μM, T24, 24 h", "setting": "[7]", "result": "100 % of DMSO control"}, {"measurement": "% of DMSO control at 100 μM, T24, 48 h", "setting": "[7]", "result": "79 % of DMSO control"}, {"measurement": "% of DMSO control at 100 μM, T24, 72 h", "setting": "[7]", "result": "62 % of DMSO control"}, {"measurement": "% of DMSO control at 100 μM, A549, 24 h", "setting": "[8]", "result": "100 % of DMSO control"}, {"measurement": "% of DMSO control at 100 μM, A549, 48 h", "setting": "[8]", "result": "100 % of DMSO control"}, {"measurement": "% of DMSO control at 100 μM, A549, 72 h", "setting": "[8]", "result": "100 % of DMSO control"}]}
{"smiles": "COc1ccc(C(N)=O)cn1", "note": "[JBSNF-000088]", "values": [{"measurement": "body weight", "setting": "high-fat DIO mice", "result": "reduce"}, {"measurement": "glucose tolerance", "setting": "high-fat DIO mice", "result": "normalize"}, {"measurement": "insulin sensitivity", "setting": "high-fat DIO mice", "result": "improve"}, {"measurement": "plasma levels of MNA", "setting": "high-fat DIO mice", "result": "reduce"}, {"measurement": "IC50", "setting": "NNMT", "result": 2400, "unit": "nM"}]}
{"smiles": "Cc1cccc2ccc[n+](C)c12", "note": "[8-methyl-1-MQ]", "values": [{"measurement": "IC50", "setting": "NNMT", "result": 1800, "unit": "nM"}]}
